Among the data in DBAASP are MIC values, retold here.

Among the test systems are Bacillus cereus; Escherichia coli; Staphylococcus aureus; Pseudomonas aeruginosa.
Holding throughout (test): ≥ marks a high value that may be exact or a test limit, other limits are often not marked, values filed in µg/mL are converted to µM
Test [1] relates to Escherichia coli ATCC 25922.
Test [2] concerns Pseudomonas aeruginosa ATCC 27853.
Test [3] deals with Staphylococcus aureus ATCC 25923.
The subject of test [4] is Staphylococcus epidermidis ATCC 12228.

Converted amounts (≈) assume the structure as drawn.

As a reminder, the MIC is the lowest concentration that inhibits growth of the organism. As to `CC[C@H](C)[C@H](NC(=O)CNC(=O)[C@H](C)NC(=O)[C@H](Cc1ccc(O)cc1)NC(=O)[C@@H](NC(=O)[C@H](CC(C)C)NC(=O)[C@H](C)N)C(C)C)C(=O)N[C@@H](CCCCN)C(=O)N[C@@H](CCCCN)C(=O)N[C@H](C(=O)N[C@@H](C)C(=O)N[C@@H](Cc1ccccc1)C(=O)N[C@@H](CC(C)C)C(=O)N[C@@H](CCCCN)C(=O)N[C@H](C(=O)N[C@@H](CCC(N)=O)C(=O)N[C@@H](CCCCN)C(=O)N[C@@H](CS)C(=O)N[C@@H](CC(=O)O)C(=O)NCC(=O)O)C(C)C)[C@@H](C)O` [ALVYAGIKKTAFLKVQKCDG], the figures for the MIC with Bacillus cereus and with Escherichia coli were at least 119 µM and over 119 µM, respectively.
`CC(C)C[C@H](NC(=O)[C@@H](N)Cc1ccccc1)C(=O)NCC(=O)N[C@@H](CCCCN)C(=O)N[C@H](C(=O)N[C@@H](Cc1ccccc1)C(=O)N[C@@H](CCCCN)C(=O)N[C@@H](CCCCN)C(=O)N[C@@H](C)C(=O)N[C@@H](CO)C(=O)N[C@@H](CCCCN)C(=O)N[C@H](C(=O)N[C@H](C(=O)N1CCC[C@H]1C(=O)N[C@@H](C)C(=O)N[C@H](C(=O)N[C@@H](Cc1ccccc1)C(=O)NCC(=O)N[C@@H](CCCCN)C(=O)N[C@H](C(=O)O)C(C)C)C(C)C)C(C)C)C(C)C)C(C)C` [FLGKVFKKASKVVPAVFGKV]: the MIC with Bacillus cereus was at least 119 µM; against Escherichia coli, 119 µM (≈ 256 µg/mL); with Staphylococcus aureus, over 119 µM.
In the case of `CSCC[C@H](NC(=O)[C@@H](N)Cc1ccccc1)C(=O)N[C@@H](CCCCN)C(=O)N[C@H](C(=O)N[C@@H](CC(C)C)C(=O)N[C@@H](C)C(=O)N[C@H](C(=O)N[C@@H](Cc1ccccc1)C(=O)NCC(=O)N[C@@H](CO)C(=O)N[C@H](C(=O)N[C@H](C(=O)N[C@H](C(=O)N[C@@H](CO)C(=O)N[C@@H](C)C(=O)N1CCC[C@H]1C(=O)N[C@@H](CCCCN)C(=O)N[C@@H](C)C(=O)N[C@@H](CO)C(=O)N[C@@H](CCCCN)C(=O)O)[C@@H](C)O)C(C)C)C(C)C)C(C)C)C(C)C` [FMKVLAVFGSVVTSAPKASK], the MIC with Bacillus cereus is at least 124 µM; in the test with Escherichia coli it was over 124 µM.
Turning to `CC[C@H](C)[C@H](NC(=O)[C@H](C)NC(=O)CNC(=O)[C@@H](NC(=O)[C@H](CCCCN)NC(=O)[C@H](CCCCN)NC(=O)[C@@H](NC(=O)[C@H](C)NC(=O)CNC(=O)[C@H](Cc1c[nH]c2ccccc12)NC(=O)[C@H](CCCCN)NC(=O)[C@H](CCCCN)NC(=O)[C@@H](NC(=O)[C@H](C)NC(=O)CNC(=O)[C@@H](NC(=O)[C@H](CCCCN)NC(=O)[C@@H](N)CCCCN)[C@@H](C)CC)[C@@H](C)CC)[C@@H](C)CC)[C@@H](C)CC)C(N)=O` [KKIGAIKKWGAIKKIGAI], the values for the MIC against Escherichia coli, with Pseudomonas aeruginosa and in the test on Staphylococcus aureus were 66.5 µM (≈ 128 µg/mL), 66.5 µM (≈ 128 µg/mL) and over 133 µM, respectively.
In the case of `CC[C@H](C)[C@H](NC(=O)[C@H](CCCCN)NC(=O)[C@@H](NC(=O)[C@@H](NC(=O)[C@H](Cc1ccc(O)cc1)NC(=O)[C@@H](NC(=O)[C@@H](N)CCCCN)C(C)C)C(C)C)C(C)C)C(=O)N[C@@H](C)C(=O)N[C@H](C(=O)N1CCC[C@H]1C(=O)N[C@@H](CS)C(=O)N[C@@H](Cc1ccccc1)C(=O)N1CCC[C@H]1C(=O)N[C@@H](CCCCN)C(=O)N[C@@H](CO)C(=O)N[C@@H](C)C(=O)N[C@@H](CCCN=C(N)N)C(=O)N[C@@H](CO)C(=O)N[C@H](C(=O)N[C@@H](CO)C(=O)O)C(C)C)C(C)C` [KVYVVKIAVPCFPKSARSVS], the MIC against Bacillus cereus was at least 118 µM; with Escherichia coli, over 118 µM.
Regarding `CC[C@H](C)[C@H](NC(=O)[C@H](C)NC(=O)[C@H](CCCCN)NC(=O)[C@H](CC(C)C)NC(=O)[C@H](C)NC(=O)[C@@H](NC(=O)[C@H](Cc1cnc[nH]1)NC(=O)[C@H](C)NC(=O)[C@@H](NC(=O)[C@@H](NC(=O)[C@H](CCCCN)NC(=O)[C@H](CCCCN)NC(=O)[C@H](C)NC(=O)[C@H](CO)NC(=O)[C@H](CCCCN)NC(=O)[C@H](Cc1ccccc1)NC(=O)[C@@H](NC(=O)[C@H](CCCCN)NC(=O)[C@H](C)NC(=O)[C@H](Cc1ccccc1)NC(=O)[C@H](CO)NC(=O)[C@H](CCCCN)NC(=O)[C@H](Cc1c[nH]c2ccccc12)NC(=O)[C@H](CCCCN)NC(C)=O)[C@@H](C)O)[C@@H](C)O)C(C)C)[C@@H](C)O)C(=O)N[C@@H](CO)C(=O)N[C@@H](CO)C(N)=O` [KWKSFAKTFKSAKKTVAHTALKAISS], the MIC in test [1], in test [2], in test [3] and in test [4] was 125 µM (≈ 363 µg/mL) in each case.
With `CC(C)C[C@H](NC(=O)[C@H](CCCCN)NC(=O)[C@H](Cc1ccccc1)NC(=O)[C@@H](NC(=O)[C@H](C)NC(=O)[C@@H]1CCCN1C(=O)[C@@H](N)CC(C)C)C(C)C)C(=O)N[C@@H](C)C(=O)N[C@@H](CO)C(=O)N[C@@H](CCCCN)C(=O)N[C@H](C(=O)N[C@@H](Cc1ccccc1)C(=O)N1CCC[C@H]1C(=O)N[C@@H](C)C(=O)N[C@H](C(=O)N[C@@H](Cc1ccc(O)cc1)C(=O)N[C@@H](CS)C(=O)N[C@@H](CCCCN)C(=O)N[C@@H](C)C(=O)N[C@@H](CO)C(=O)O)C(C)C)C(C)C` [LPAVFKLASKVFPAVYCKAS], the minimal inhibitory concentration (MIC) against Bacillus cereus was at least 120 µM; against Escherichia coli it was 59.8 µM (≈ 128 µg/mL).
On to `CC[C@H](C)[C@H](NC(=O)[C@H](CCCCN)NC(=O)[C@H](Cc1ccccc1)NC(=O)[C@@H](NC(=O)[C@@H](NC(=O)[C@@H]1CCCN1C(=O)[C@@H](N)CC(C)C)C(C)C)C(C)C)C(=O)N[C@@H](C)C(=O)N[C@@H](CO)C(=O)N[C@@H](CCCCN)C(=O)N[C@H](C(=O)N[C@H](C(=O)N1CCC[C@H]1C(=O)N[C@@H](CO)C(=O)N[C@H](C(=O)N[C@H](C(=O)N[C@@H](CO)C(=O)N[C@@H](CCCCN)C(=O)N[C@H](C(=O)N[C@H](C(=O)O)[C@@H](C)O)[C@@H](C)CC)[C@@H](C)CC)C(C)C)C(C)C)C(C)C` [LPVVFKIASKVVPSVISKIT], for which the minimum inhibitory concentration (MIC) with Bacillus cereus was at least 120 µM; against Escherichia coli it was over 120 µM.
On to `CC[C@H](C)[C@H](NC(=O)[C@H](Cc1ccccc1)NC(=O)[C@H](CCCCN)NC(=O)[C@H](C)NC(=O)[C@@H](NC(=O)[C@H](CO)NC(=O)[C@H](CCCCN)NC(=O)[C@@H](N)CCSC)[C@@H](C)CC)C(=O)N[C@@H](C)C(=O)N[C@@H](CCCCN)C(=O)N[C@H](C(=O)N[C@H](C(=O)N[C@@H](C)C(=O)N[C@@H](CCCCN)C(=O)N[C@@H](CCC(N)=O)C(=O)NCC(=O)N[C@@H](C)C(=O)N[C@@H](CCCCN)C(=O)N[C@@H](CCC(N)=O)C(=O)NCC(=O)O)C(C)C)[C@@H](C)O` [MKSIAKFIAKTVAKQGAKQG], for which the minimum inhibitory concentration (MIC) against Bacillus cereus is at least 122 µM; with Escherichia coli, over 122 µM.
For `CC[C@H](C)[C@H](NC(=O)[C@H](CO)NC(=O)[C@H](CC(C)C)NC(=O)CNC(=O)[C@@H](NC(=O)[C@@H](NC(=O)[C@H](CCCCN)NC(=O)[C@@H]1CCCN1)C(C)C)C(C)C)C(=O)N[C@H](C(=O)N[C@H](C(=O)N[C@H](C(=O)N[C@@H](CCCCN)C(=O)N[C@@H](C)C(=O)N[C@@H](CCCCN)C(=O)N[C@H](C(=O)N[C@@H](CO)C(=O)N[C@@H](CO)C(=O)N[C@@H](C)C(=O)N[C@@H](CC(C)C)C(=O)NCC(=O)O)C(C)C)C(C)C)C(C)C)C(C)C` [PKVVGLSIVVVKAKVSSALG], the minimum inhibitory concentration (MIC) with Bacillus cereus was at least 131 µM; against Escherichia coli, over 131 µM.
Take `CC[C@H](C)[C@H](NC(=O)CNC(=O)[C@H](CC(C)C)NC(=O)[C@@H](NC(=O)[C@H](Cc1ccc(O)cc1)NC(=O)[C@@H](NC(=O)[C@H](CO)NC(=O)[C@@H](NC(=O)[C@@H]1CCCN1C(=O)[C@@H](NC(=O)[C@@H](N)CO)C(C)C)[C@@H](C)O)C(C)C)[C@@H](C)O)C(=O)N[C@@H](CCCCN)C(=O)N[C@H](C(=O)N[C@@H](CC(C)C)C(=O)N[C@@H](Cc1c[nH]c2ccccc12)C(=O)N[C@@H](CO)C(=O)N[C@@H](C)C(=O)N[C@@H](Cc1ccc(O)cc1)C(=O)N[C@@H](CCCCN)C(=O)N[C@@H](Cc1cnc[nH]1)C(=O)O)[C@@H](C)CC` [SVPTSVYTLGIKILWSAYKH]: in test [4], the MIC turned out to be 50 µM (≈ 113 µg/mL).
`CC(C)C[C@H](NC(=O)[C@H](Cc1ccc(O)cc1)NC(=O)[C@H](Cc1ccc(O)cc1)NC(=O)CNC(=O)[C@H](Cc1c[nH]c2ccccc12)NC(=O)[C@@H](N)CO)C(=O)NCC(=O)N[C@@H](CCCCN)C(=O)N[C@@H](CCCCN)C(=O)N[C@@H](C)C(=O)N[C@@H](CCCN=C(N)N)C(=O)N[C@@H](Cc1c[nH]c2ccccc12)C(=O)N[C@@H](CC(N)=O)C(=O)N[C@@H](CC(C)C)C(=O)N[C@@H](CCCCN)C(=O)N[C@@H](Cc1cnc[nH]1)C(=O)N1CCC[C@H]1C(=O)N[C@@H](Cc1ccc(O)cc1)C(=O)N[C@H](C(=O)N[C@@H](CCC(N)=O)C(=O)N[C@@H](Cc1ccccc1)C(=O)O)C(C)C` [SWGYYLGKKARWNLKHPYVQF] registered a minimal inhibitory concentration (MIC) in test [4] of over 50 µM.
The compound `CC(C)C[C@H](NC(=O)[C@H](Cc1ccc(O)cc1)NC(=O)[C@H](Cc1ccc(O)cc1)NC(=O)CNC(=O)[C@H](Cc1c[nH]c2ccccc12)NC(=O)[C@@H](N)CO)C(=O)NCC(=O)O` [SWGYYLG] returned an MIC in test [4] of over 50 µM.
Take `CC[C@H](C)[C@H](NC(=O)[C@H](CCCCN)NC(=O)[C@@H](NC(=O)[C@H](C)NC(=O)[C@@H](NC(=O)[C@H](CC(C)C)NC(=O)[C@H](CCCCN)NC(=O)[C@H](C)NC(=O)[C@@H](NC(=O)[C@@H](NC(=O)CNC(=O)[C@@H](NC(=O)[C@H](CC(C)C)NC(=O)[C@@H](N)[C@@H](C)O)C(C)C)C(C)C)C(C)C)C(C)C)[C@@H](C)O)C(=O)NCC(=O)N[C@@H](CO)C(=O)N[C@@H](CO)C(=O)N1CCC[C@H]1C(=O)N[C@@H](CCCN=C(N)N)C(=O)N[C@@H](C)C(=O)O` [TLVGVVAKLVATKIGSSPRA]: the figures for the MIC with Bacillus cereus and with Escherichia coli were at least 130 µM and over 130 µM, respectively.
